This is an account of results in patent publication US5801017A, “Production of recombinant factor Xa inhibitor of leech Hirudo medicinalis” (Bio-Technology General Corp., priority 1994, dated 1998).

One data set concerns FXa. As to the kind of experiment: chromogenic FXa inhibitory activity assay (hydrolysis of CHG). It counts as biochemical, bovine. On the procedure: Increasing amounts of FXaI purified on Mono-Q were preincubated for 3 minutes with 2 pmol bovine FXa in a 1 ml cuvette. The initial rate of hydrolysis of the substrate CHG was monitored at 405 nm (see Example 2). Fraction 47 was the peak fraction of a particular purification experiment.
The assay of FXa inhibitory activity is based on the inhibition of the FXa-mediated hydrolysis of the chromogenic substrate methoxycarbonyl-D-cyclohexylglycyl-glycyl-arginyl p-nitroanilide (CHG) as described below.
The appropriate substrate concentration was determined from the molar absorbance which is 8210 at 342 nm. The reaction mixture contains 50 mM Tris-HCl pH 8.2, 5 mM CaCl2, 200 mM NaCl, 0.1% PEG, 40 μM substrate, and approximately 2 nM FXa. The FXa concentration is determined more precisely from the initial (first 20 seconds) rate of CHG hydrolysis at 40 μM in the absence of inhibitor based on the kinetic parameters mentioned above.
Inhibition of the increase in absorbance may be observed in the presence of the FXa inhibitory activity of an FXa inhibitor such as FXaI of the present invention. The inhibitor concentration is the difference in absorbance between the reaction in the presence and absence of inhibitor multiplied by the FXa concentration.
This determination assumes the formation of a 1:1 enzyme-inhibitor complex, and further assumes that the dissociation constant is low enough (i.e., tight binding) to enable essentially total binding of the inhibitor (FXaI) to the enzyme (FXa). In fact, the saturation shape of the dose-response curve (FIG. 3) provides evidence that a finite and not negligible dissociation of the inhibitor-enzyme complex occurs under these conditions. The dose response curve is represented by the degree of inhibition versus FXaI concentration and is further described in Section 5.2.
The degree of dissociation of the FXa-FXaI complex is characterized by the inhibition constant (Ki) and may be determined from the inhibited velocity of the hydrolysis of the chromogenic substrate CHG. […] The Ki of naturally occurring FXa in the chromogenic assay is about 9 nM.
The determination of inhibitor concentration determined by the above method is therefore probably underestimated. It was found useful to define the FXaI concentration as the protein concentration (IC50) required to obtain a constant degree of inhibition, usually 50% and to define the amount causing 50% inhibition under these reaction conditions to be 1 milliunit (mu) or 1 pmol. IC50 is generally higher than Ki, and depending on the type of inhibition, can be shown to depend variously on substrate concentration, Ki, Km and other factors (Segel, I. (1974) "Enzyme Kinetics", Wiley Interscience). In fact, the range of values of IC50 was determined to be about 10-20 nM.
The FXaI activity assay used to determine concentration during purification and characterization was performed in an Elisa Titertek Twin Reader, Type 380 (EF LAB). The final activity measurement of purified protein was also performed in a Phillips (model PU 8720) UV/Vis scanning spectrophotometer.

The target of data set [1] is FXa in a prothrombinase complex. In words: FXa inhibitory activity in the prothrombinase complex (thrombin generation). It is filed as biochemical. On the procedure:
The inhibitory activity of FXaI may also be assayed by its effect on FXa in a prothrombinase complex. The phospholipid used was rabbit brain cephalin (Sigma). The contents of one vial, suspended in 1 ml 0.15M NaCl were diluted 1:40 in the reaction mixture, i.e. 2.5 μl/100 μl. The concentrations of the other components were: FXa 250 pM, prothrombin 2.67 μM, FVa 4.2 nM and Ca^++ 1 mM in 20 mM Tris-HCl pH 7.4/150 mM NaCl/0.1% polyethylene glycol 6000. Following 10 minutes of preincubation at 37° C., the reaction was initiated by the addition of prothrombin. Aliquots were removed at various time intervals. The reaction was stopped by 10 mM EDTA and aliquots were kept on ice until assayed. The inhibition of FXa by a FXa inhibitor (e.g. FXaI of the present invention) was observed as the effect of FXaI on the generation of thrombin from prothrombin at 37° C. The amount of thrombin generated was assayed using 80 μg of the synthetic thrombin p-nitroanilide substrate S-2238 (KabiVitrum, Sweden) at 23° C.

Another data set relates to Plasmin. In words: inhibition of plasmin (S2251). To be noted: substrate S2251. It counts as biochemical. On the procedure:
(§1) Inhibition of bovine trypsin by naturally occurring FXaI was calculated following the classical dose response method. Ki values were obtained by plotting the percentage of activity of FXaI (determined by the calorimetric assay described below) against the ratio of the concentrations of inhibitor and enzyme. The calorimetric assay was performed using 80 μM Chromozyme TH (Pentapharm, Switzerland) as substrate in 10 mM Tris-HCl, 10 mM Hepes (pH 7.8), 100 mM NaCl, 0.1% PEG 6000 at 25° C. in the presence of 3.83 or 4.27 nM bovine trypsin. Inhibitor and enzyme were preincubated for 10 min at 25° C. before adding the substrate.
(§2) Plasmin and thrombin were not inhibited by naturally occurring FXaI in a similar assay as that for trypsin. In the case of thrombin, the substrate used was the same as that used for trypsin; in the case of plasmin, S2251 was used as substrate.

Data set [2] relates to thrombin. In words: inhibition of thrombin (Chromozyme TH). The note with it: substrate Chromozyme TH. It is filed as biochemical. On the procedure:
as §1, §2

Data set [3] is described as follows: pharmacokinetic study in mice, ex vivo APTT. Also on record: species or system Female Balb/c mice. The note with it: for Mean APTT: ex vivo, i.v. 5.25 μg/mouse. On the procedure: The clearance of FXaI from the blood of female mice was monitored over a period of 30 minutes by assessing the ex vivo APTT (see FIG. 4) at the time points indicated. The amount of FXaI is expressed as μg FXaI [Macart and Gerbaut, Clin. Chim. Acta 122:93-101 (1982)], determined from a calibration curve consisting of in vitro APTT time versus inhibitor concentration as shown in FIG. 5B.
A preliminary pharmacokinetic experiment was performed in order to assess the clearance rate of FXaI from the circulatory system. Female Balb/c mice (20-25 gm body weight) were injected intravenously with purified FXaI (isoform A; 5.25 μg protein/mouse in 0.2 ml saline). Blood samples were drawn into 1/10 v/v 3.8% citrate at 1, 3, 10 and 30 min after injection. It was possible to obtain only one blood sample from each mouse and therefore each timepoint is from a different mouse. The plasma was then separated and assayed for APTT. The concentration of FXaI was calculated from a calibration curve of APTT versus FXaI concentration which was constructed in vitro by adding various amounts of FXaI to a plasma pool from untreated mice FIG. 5B.

In data set [4] the test system is thrombin. In words: thrombin inhibition assay according to Lottenberg et al. It is filed as biochemical. On the procedure: The refolded and dialyzed protein so obtained was assayed for FXa inhibitory activity by the biochemical chromogenic assay described in Example 2. The results are shown in Table 6 as milliunits per mg protein (mu/mg). The amount of protein causing 50% inhibition in an assay mixture containing 2 nM FXa is defined as 1 mu. In addition, the refolded protein was also tested for its inhibitory effect on thrombin, another proteolytic enzyme of the coagulation cascade, which was assayed according to Lottenberg et al. Methods Enzymol. 80:341-361 (1981).

For another data set, the system named is plasma. As to the kind of experiment: APTT doubling by recombinant mature FXaI. It counts as biochemical. On the procedure:
The inhibitory activity of FXaI was also assayed as the increase of the activated partial thromboplastin time (APTT) essentially as described in Spaethe, Haemostasis, AHS/Deutschland GmbH, Munich (1984), using as reagent Actin FS (Dade), which contains ellagic acid for activation of Factors XII and Factor XI, and soy bean phospholipid. Under these conditions, and in the presence of 20 mM CaCl2, only the intrinsic pathway of coagulation is activated.

Several values for one entry are separate records, joined by “and”; a condition that tells them apart may be missing. Equal entries are not always repeated. Where two headings read alike, the source gives them in different places.

Consider “naturally occurring FXaI: FXa inhibitor protein isolated from dilute leech saliva (DLS) of the leech Hirudo medicinalis; 14 kD monomer”, for which, in the data set on FXa (1 mu = amount causing 50% inhibition with 2 nM FXa), the “Inhibitory activity (specific activity), FXa” value is reported as 507 mu/mg. Also, the IC50 in the data set on FXa (chromogenic assay, read-out: IC50 (protein concentration for 50% inhibition)) is 10 to 20 nM; in data set [1] (250 pM FXa, 2.67 μM prothrombin) it was 0.19 nM. Besides, the Ki in data set [1] (50 pM FXa, 1.35 μM prothrombin, read-out: Ki in prothrombinase complex assay, modified protocol) was found to be 0.12 nM; in data set [1] (250 pM FXa, 2.67 μM prothrombin, read-out: Ki in prothrombinase complex assay) it was 0.072 nM. Besides, the inhibition of plasmin result in the data set on Plasmin is reported as “not inhibited”. The inhibition of thrombin result with thrombin [2] is “not inhibited”. In addition, the “FXaI calculated from the calibration curve” value in data set [3] (1 min post-injection) is 0.3150 µg; in data set [3] (3 min post-injection), 0.243 µg and 0.174 µg; in data set [3] (10 min post-injection), 0.1245 µg; in data set [3] (30 min post-injection) it was 0 µg. Also, the “Mean APTT” value in data set [3] (1 min post-injection) was 91 s; in data set [3] (3 min post-injection), 79 s and 66 s; in data set [3] (10 min post-injection), 55 s; in data set [3] (30 min post-injection), 29 s and 30 s. Further, the “half life of plasma inhibitor activity” value in data set [3] (mice, intravenous, 5.25 μg protein/mouse) was “about 7.5 min”. Further, in the data set with thrombin [4], the “Inhibitory activity (specific activity), Thrombin” value is less than 1 mu/mg.

B1: mature FXaI: recombinant FXaI obtained by enterokinase cleavage of the pFSHI-6 prepeptide, about 15 kD (protein)
chain: YEVIYVDDPCEDSDCEDGNKCSPVTNECDCSPVRCRLHCNFYVKDSNGCETCACEPKCKHKNCPTGHHCNKLTNKCELKKQRRMG
For the molecule B1, the “FXa inhibitory specific activity” value is no more than 8000 mu/mg protein with FXa (after removal of the extension peptide from the cleavage solution by chromatography) and 4000-4500 mu/mg protein in the data set on FXa (following cleavage with enterokinase). Also, the “concentration causing doubling of the APTT” value in the data set with plasma stood at 12.2 µg/mL.

The Ki is a measure of affinity in units of concentration, obtained from inhibition or displacement.
